From ChEMBL document CHEMBL4673334, “In Vivo Biological Evaluation of a Synthetic Royleanone Derivative as a Promising Fast-Acting Trypanocidal Agent by Inducing Mitochondrial-Dependent Necrosis” (J Nat Prod, 2020)
Active and inactive are the calls of the source. No cut-off for these calls is given here.

Tests used:
Trypanosoma cruzi [1] = test: Inhibition of Trypanosoma cruzi MHOM/Pe/2011/Arequipa(DTU V) epimastigote form Fe-SOD at 12.5 uM by UV-VIS spectrophotometric method relative to control
Trypanosoma cruzi [2] = test: Antitrypanosomal activity against Trypanosoma cruzi MHOM/Pe/2011/Arequipa(DTU V) amastigote form infected in BALB/c mouse assessed as reduction in parasite growth at 20 mg/kg, po administered for 5 days starting at 9 days post infection and measured up to 106 days post infection by ELISA assay; assay type: functional, organism-based; conditions: time 5.0 day
Trypanosoma cruzi [3] = test: Antitrypanosomal activity against Trypanosoma cruzi MHOM/Pe/2011/Arequipa(DTU V) amastigote form infected in BALB/c mouse assessed as reduction in parasitaemia at 20 mg/kg, po for 5 days starting at 9 days post infection and measured after 7 days post infection relative to control; assay type: functional; parameters: scale not given: the % may be the effect or the level left; conditions: time 5 day
Trypanosoma cruzi [4] = test: Antitrypanosomal activity against Trypanosoma cruzi MHOM/Pe/2011/Arequipa(DTU V) amastigote form infected in BALB/c mouse assessed as reduction in spleen enlargement at 20 mg/kg, po administered for 5 days starting at 9 days post infection and measured after 145 days post infection; assay type: functional, organism-based; conditions: time 5.0 day
Trypanosoma cruzi [5] = test: Inhibition of Trypanosoma cruzi MHOM/Pe/2011/Arequipa(DTU V) epimastigote form Fe-SOD at 25 uM by UV-VIS spectrophotometric method relative to control
Trypanosoma cruzi [6] = test: Antitrypanosomal activity against Trypanosoma cruzi MHOM/Pe/2011/Arequipa(DTU V) amastigote form infected in BALB/c mouse assessed as reduction in parasitaemia at 20 mg/kg, po for 5 days starting at 9 days post infection and measured after 13 to 35 days post infection; assay type: functional, organism-based; conditions: time 5.0 day

With COC(=O)[C@]1(C)CCC[C@]2(C)C3=C(C=C[C@@H]12)C(=O)C(C(C)C)=CC3=O the inhibition (Trypanosoma cruzi [1]) was 80%, the Activity (Trypanosoma cruzi [2]) was “Active” and the Activity (Trypanosoma cruzi [3]) was 65%. For the same molecule, the Activity (Trypanosoma cruzi [4]) was “Active”, the inhibition (Trypanosoma cruzi [5]) was 100% and the Activity (Trypanosoma cruzi [6]) was “Active”.
